Experimental data from PubChem BioAssay AID624367 (Broad Institute, 2012).
Calls of active or inactive are those of the source. The rule behind the calls is not given here.

Experiment: viability loss in LCL cells – cell-based, plate reader, dry powder, set 2, cytotoxicity control, dose response (AID 624367)
Conditions: Lymphoblastoid cell line (LCL) cytotoxicity, plate reader; at 16 µM (top of the series)

| Compound | activity change, negative = cytotoxicity |
| --- | --- |
| C[C@@H]1CN([C@H](C)CO)C(=O)Cc2cc(NC(=O)Cc3ccccc3)ccc2O[C@@H]1CN(C)Cc1ccc(C(F)(F)F)cc1 | 4.6% (inactive) |

Same assay, conditions: Lymphoblastoid cell line (LCL) cytotoxicity, plate reader; at 30 µM (top of the series)

| Compound | activity change, negative = cytotoxicity |
| --- | --- |
| Cc1noc(C)c1S(=O)(=O)Nc1ccc2c(c1)C(=O)N([C@@H](C)CO)C[C@H](C)[C@H](CN(C)Cc1ccc(C(F)(F)F)cc1)OCCCC[C@@H](C)O2 | -7.54% (inactive) |

Same assay, conditions: Lymphoblastoid cell line (LCL) cytotoxicity, plate reader; at 35 µM (top of the series)

| Compound | activity change, negative = cytotoxicity |
| --- | --- |
| Cc1noc(C)c1S(=O)(=O)Nc1ccc2c(c1)C(=O)N([C@H](C)CO)C[C@H](C)[C@@H](CN(C)Cc1ccc(C(F)(F)F)cc1)OCCCC[C@@H](C)O2 | -2.6% (inactive) |
| C[C@@H](NC(=O)C[C@@H]1C=C[C@@H](NC(=O)Cc2ccccn2)[C@H](CO)O1)c1ccccc1 | 0.18% (inactive) |
| COC(=O)C[C@@H]1C[C@@H]2c3cc(NC(=O)CN(C)C)ccc3O[C@@H]2[C@@H](CO)O1 | -2.96% (inactive) |
| C[C@H](NC(=O)C[C@@H]1C=C[C@@H](NC(=O)Cc2ccccn2)[C@@H](CO)O1)c1ccccc1 | -1.09% (inactive) |
| C[C@@H](NC(=O)C[C@H]1C=C[C@@H](NC(=O)Cc2ccccn2)[C@H](CO)O1)c1ccccc1 | -1.43% (inactive) |
| CC(C)(C)[S@@](=O)N1Cc2cc(C(=O)NCc3ccccc3F)nc(-c3cccc(-c4cccnc4)c3)c2[C@H]1CCO | -3.02% (inactive) |
| COc1ccccc1C#Cc1ccc2c(c1)O[C@H](CN(C)Cc1cccnc1)[C@H](C)CN([C@H](C)CO)S2(=O)=O | -2.03% (inactive) |
| COc1ccccc1C#Cc1cnc2c(c1)C(=O)N([C@H](C)CO)C[C@H](C)[C@@H](CN(C)C(=O)c1ccc3c(c1)OCO3)O2 | 8.25% (inactive) |
| O=C(Cc1ccccn1)NCC[C@@H]1CC[C@H](NC(=O)Nc2ccc(Cl)cc2)[C@H](CO)O1 | 7.74% (inactive) |
| CS(=O)(=O)Nc1ccc2c(c1)[C@H]1C[C@@H](CC(=O)NCC3CC3)O[C@@H](CO)[C@H]1O2 | -1.05% (inactive) |
| C[C@@H]1CN([C@@H](C)CO)S(=O)(=O)c2ccc(C#Cc3ccncc3)cc2O[C@H]1CN(C)C(=O)Nc1ccc2c(c1)OCO2 | -1.7% (inactive) |
| COc1ccc(CNC(=O)c2cc3c(c(-c4cccc(-c5ccc(C#N)cc5)c4)n2)[C@@H](CCO)N([S@](=O)C(C)(C)C)C3)cc1 | -0.743% (inactive) |
| CCCNC(=O)c1cc2c(c(-c3cccc(-c4cccc(F)c4)c3)n1)[C@H](CCO)N([S@@](=O)C(C)(C)C)C2 | -1.43% (inactive) |
| Cc1noc(C)c1S(=O)(=O)Nc1ccc2c(c1)C(=O)N([C@H](C)CO)C[C@@H](C)[C@H](CN(C)Cc1ccc(C(F)(F)F)cc1)OCCCC[C@@H](C)O2 | -9.24% (inactive) |
| O=C(C[C@@H]1C[C@H]2c3cc(NS(=O)(=O)c4ccc(F)cc4)ccc3O[C@H]2[C@@H](CO)O1)NC1CCCCC1 | 5.66% (inactive) |
| O=C(C[C@@H]1CC[C@@H]2[C@H](COC[C@@H](O)CN2Cc2ccc3c(c2)OCO3)O1)Nc1ccc(-c2ccccc2)cc1 | -8.48% (inactive) |
| Cc1noc(C)c1S(=O)(=O)Nc1ccc2c(c1)C(=O)N([C@H](C)CO)C[C@H](C)[C@@H](CN(C)Cc1ccc(C(F)(F)F)cc1)OCCCC[C@H](C)O2 | -4.42% (inactive) |
| CO[C@H](CN(C)S(=O)(=O)c1cccc(Cl)c1)[C@@H](C)CN([C@H](C)CO)S(=O)(=O)c1ccc(Cl)cc1 | -9.42% (inactive) |
| COc1ccccc1CNC(=O)C[C@@H]1C[C@H]2c3cc(NC(=O)c4ccc5c(c4)OCO5)ccc3O[C@H]2[C@H](CO)O1 | -4.54% (inactive) |
| C[C@H]1CN([C@@H](C)CO)C(=O)Cc2cc(NC(=O)Cc3ccccc3)ccc2O[C@H]1CN(C)Cc1ccc(C(F)(F)F)cc1 | 2.21% (inactive) |

| Compound | activity change, negative = cytotoxicity |
| --- | --- |
| C[C@@H]1CN([C@@H](C)CO)C(=O)Cc2cc(NC(=O)Cc3ccccc3)ccc2O[C@@H]1CN(C)Cc1ccc(C(F)(F)F)cc1 | -0.78% (inactive) |
| C/C=C/c1cccc(-c2nc(C(=O)Nc3nccs3)cc3c2[C@@H](CCO)N(C(=O)NC(C)C)C3)c1 | 3.79% (inactive) |
| COc1cccc(S(=O)(=O)N(C)C[C@H]2Oc3cc(C4=CCCCC4)ccc3S(=O)(=O)N([C@@H](C)CO)C[C@@H]2C)c1 | 4.96% (inactive) |
| COc1ccccc1C#Cc1cnc2c(c1)C(=O)N([C@@H](C)CO)C[C@H](C)[C@@H](CN(C)C(=O)c1ccc3c(c1)OCO3)O2 | 16.2% (inactive) |
| O=C(C[C@H]1CC[C@@H]2[C@H](COC[C@H](O)CN2Cc2ccc(Oc3ccccc3)cc2)O1)N1CCc2ccccc2C1 | -13.9% (inactive) |
| CN1C(=O)c2cc(NC(=O)c3ccc(C(F)(F)F)cc3)ccc2OC[C@@H]2O[C@@H](CC(=O)NC3Cc4ccccc4C3)CC[C@H]21 | -7.43% (inactive) |
| O=C(Cc1ccccn1)NCC[C@H]1CC[C@H](NC(=O)Nc2ccc(Cl)cc2)[C@@H](CO)O1 | 3.54% (inactive) |
| O=C(C[C@@H]1CC[C@@H]2[C@H](COC[C@H](O)CN2Cc2ccc3c(c2)OCO3)O1)Nc1ccc(-c2ccccc2)cc1 | -4.84% (inactive) |
| C[C@H](CO)N1C[C@H](C)[C@H](CN(C)Cc2ccc(C(F)(F)F)cc2)Oc2ccc(NC(=O)Cc3ccccc3)cc2CC1=O | 3.51% (inactive) |
| C[C@@H](NC(=O)C[C@H]1C=C[C@H](NC(=O)Cc2ccccn2)[C@@H](CO)O1)c1ccccc1 | -5.21% (inactive) |
| CN(C)c1ccc2c(c1)[C@@H]1C[C@@H](CC(=O)NCc3ccc(Oc4ccccc4)cc3)O[C@@H](CO)[C@@H]1O2 | 8.56% (inactive) |
| C[C@H](CO)N1C[C@H](C)[C@@H](CN(C)Cc2ccc(C(F)(F)F)cc2)Oc2ccc(NC(=O)Cc3ccccc3)cc2CC1=O | -0.272% (inactive) |
| Cc1noc(C)c1S(=O)(=O)Nc1ccc2c(c1)C(=O)N([C@H](C)CO)C[C@@H](C)[C@@H](CN(C)Cc1ccc(C(F)(F)F)cc1)OCCCC[C@@H](C)O2 | 1.01% (inactive) |
| Cc1noc(C)c1S(=O)(=O)Nc1ccc2c(c1)C(=O)N([C@H](C)CO)C[C@@H](C)[C@H](CN(C)Cc1ccc(C(F)(F)F)cc1)OCCCC[C@H](C)O2 | -6.93% (inactive) |
| O=C(C[C@@H]1CC[C@@H]2[C@H](COC[C@@H](O)CN2Cc2ccc(Oc3ccccc3)cc2)O1)N1CCc2ccccc2C1 | -13.2% (inactive) |
| CN(C)c1ccc2c(c1)[C@@H]1C[C@@H](CC(=O)NCc3ccc(Oc4ccccc4)cc3)O[C@H](CO)[C@@H]1O2 | 4.68% (inactive) |
| Cc1cc(C(=O)Nc2ccc3c(c2)C(=O)N(C)[C@@H]2CC[C@@H](CC(=O)NCc4ccc(-c5ccccc5)cc4)O[C@H]2CO3)no1 | -5.25% (inactive) |
| O=C(Cc1ccccn1)NCC[C@@H]1CC[C@@H](NC(=O)Nc2ccc(Cl)cc2)[C@@H](CO)O1 | 1.2% (inactive) |
| Cc1cc(C(=O)Nc2ccc3c(c2)C(=O)N(C)[C@H]2CC[C@H](CC(=O)NCc4ccc(-c5ccccc5)cc4)O[C@H]2CO3)no1 | -10.2% (inactive) |
| C[C@@H]1CN([C@H](C)CO)C(=O)c2c(c3ccccc3n2C)-c2ccccc2CO[C@H]1CN(C)C(=O)Nc1ccc(F)cc1 | 1.26% (inactive) |
